Measurements as given in patent US11584747B2, “Substituted pyridopyrimidinonyl compounds useful as T cell activators” (BRISTOL-MYERS SQUIBB COMPANY, priority 2019, dated 2023).
Read-outs that look alike come from different tables or passages of the source.

Key:
human DGKζ = human DGKζ (Homo sapiens (Human), UniProt Q13574); test: DGKζ LIPGLO assay (extruded liposome substrate, ADP-Glo luminescence); type: biochemical
[1] = system: human venous whole blood (IFN-γ); test: Human whole blood IFN-γ assay; type: cell-based
Protocol: Human venous whole blood (22.5 μL per well), obtained from healthy donors, was pre-treated with compounds for one hour at 37° C. in a humidified 95% air/5% CO2 incubator. The blood was stimulated with 2.5 μL anti-human CD3 and anti-CD28 mAb at a final concentration of 1 μg/mL each for 24 hours at 37° C. IFN-γ in the supernatants was measured using AlphLISA kit (Cat #AL217).

human DGKα = human DGKα (Homo sapiens (Human), UniProt P23743); test: DGKα ADPGLO assay (detergent/lipid micelle substrate); type: biochemical
Protocol: DGK Alpha ADPGLO (Truncated) IC50 (uM)
The detergent/lipid micelle was prepared by combining 15 g phosphatidylserine (Avanti 840035P) and 1 g diacylglycerol (8008110) and dissolving into 150 mL chloroform in a 2 L round bottom flask. Chloroform was removed under high vacuum by rotary evaporation. […] The lipid/detergent solution was split into 5 mL aliquots and stored at −80° C.

[2] = liposome assay, read-out: DGK zeta LIPGLO IC50
[3] = whole blood, normalized to 3 μM reference compound as 100% activation, read-out: IFN-γ Whole Blood Normalized EC50
[4] = truncated DGK alpha, read-out: DGK alpha ADPGLO (Truncated) IC50
[5] = liposome (LIPGLO) assay, read-out: DGK zeta (liposome assay) IC50
[6] = human whole blood, anti-CD3 plus anti-CD28 stimulation, 24 hours, read-out: IFN-γ Whole Blood EC50
[7] = ADPGLO assay, read-out: DGK alpha ADPGLO IC50

Sequence of human DGKα (P23743 whole entry, looked up, the tested form may be a part): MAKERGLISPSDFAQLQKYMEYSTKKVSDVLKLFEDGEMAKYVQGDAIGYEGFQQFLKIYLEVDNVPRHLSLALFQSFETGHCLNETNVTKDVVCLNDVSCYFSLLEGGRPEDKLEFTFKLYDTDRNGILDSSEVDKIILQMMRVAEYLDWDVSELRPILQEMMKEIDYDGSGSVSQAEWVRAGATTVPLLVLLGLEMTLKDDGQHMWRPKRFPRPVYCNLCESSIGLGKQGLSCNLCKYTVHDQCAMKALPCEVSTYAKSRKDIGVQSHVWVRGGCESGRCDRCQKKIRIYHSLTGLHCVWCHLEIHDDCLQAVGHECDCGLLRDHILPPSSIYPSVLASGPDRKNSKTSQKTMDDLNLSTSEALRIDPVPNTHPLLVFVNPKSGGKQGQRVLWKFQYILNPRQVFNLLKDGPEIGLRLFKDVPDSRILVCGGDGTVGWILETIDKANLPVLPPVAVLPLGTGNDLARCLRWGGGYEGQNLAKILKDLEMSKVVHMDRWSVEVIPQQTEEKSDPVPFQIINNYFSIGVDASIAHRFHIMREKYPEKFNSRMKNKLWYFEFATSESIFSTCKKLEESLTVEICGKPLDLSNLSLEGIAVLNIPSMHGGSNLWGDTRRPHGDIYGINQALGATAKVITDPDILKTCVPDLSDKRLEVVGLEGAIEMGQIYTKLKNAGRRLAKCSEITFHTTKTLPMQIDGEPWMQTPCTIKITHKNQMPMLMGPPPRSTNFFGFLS
Sequence of human DGKζ (Q13574 other isoform, or with tags, fused parts or gaps): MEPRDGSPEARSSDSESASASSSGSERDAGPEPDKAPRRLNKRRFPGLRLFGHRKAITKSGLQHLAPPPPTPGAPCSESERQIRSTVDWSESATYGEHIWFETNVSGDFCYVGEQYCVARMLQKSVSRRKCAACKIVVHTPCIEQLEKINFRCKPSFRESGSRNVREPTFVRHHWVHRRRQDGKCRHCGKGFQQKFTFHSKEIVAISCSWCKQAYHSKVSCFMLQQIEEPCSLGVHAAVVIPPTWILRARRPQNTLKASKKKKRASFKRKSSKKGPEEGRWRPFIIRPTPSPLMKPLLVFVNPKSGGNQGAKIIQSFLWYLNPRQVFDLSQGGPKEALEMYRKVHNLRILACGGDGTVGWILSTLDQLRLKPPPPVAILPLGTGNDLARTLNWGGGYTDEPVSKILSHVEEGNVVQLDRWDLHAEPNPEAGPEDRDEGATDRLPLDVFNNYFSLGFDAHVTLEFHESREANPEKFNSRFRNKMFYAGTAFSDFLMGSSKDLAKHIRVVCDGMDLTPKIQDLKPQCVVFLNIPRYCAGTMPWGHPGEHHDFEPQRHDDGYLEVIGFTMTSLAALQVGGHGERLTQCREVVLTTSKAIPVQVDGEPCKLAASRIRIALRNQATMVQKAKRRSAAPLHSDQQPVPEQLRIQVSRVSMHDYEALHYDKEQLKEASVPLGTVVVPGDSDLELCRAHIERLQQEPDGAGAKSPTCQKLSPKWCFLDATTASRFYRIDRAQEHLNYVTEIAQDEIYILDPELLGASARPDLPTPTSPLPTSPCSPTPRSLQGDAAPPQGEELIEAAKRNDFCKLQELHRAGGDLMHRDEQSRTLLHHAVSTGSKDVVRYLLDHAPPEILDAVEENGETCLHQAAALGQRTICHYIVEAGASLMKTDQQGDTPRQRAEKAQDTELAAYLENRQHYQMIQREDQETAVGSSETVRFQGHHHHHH

Structure (SMILES) | IC50 (human DGKζ; [2]) [nM] | IC50 (human DGKα; [4]) [nM] | IC50 (human DGKζ; [5]) [nM] | EC50 [1, 6] [nM] | IC50 (human DGKα; [7]) [nM] | EC50 [1, 3] [nM] | EC50 ([1]; Homo sapiens, whole blood, normalized to 3 μM reference compound as 100% activation, read-out: IFN-γ Whole Blood Normalized EC50) [nM]
CC[C@H]1CN(C(C)c2ccc(C)nc2)[C@H](CC)CN1c1nc(=O)n(C)c2ccc(C#N)nc12 (stereo partly drawn) [Example 228, 4-((2S,5R)-2,5-diethyl-4-(1-(6-methylpyridin-3-yl)ethyl)piperazin-1-yl)-1-methyl-2-oxo-1,2-dihydropyrido[3,2-d]pyrimidine-6-carbonitrile] | 300 | 190 |  |  |  | 600 | 
CCC(c1ccc(C(F)(F)F)nc1)N1C[C@H](CC)N(c2nc(=O)n(C)c3ccc(C#N)nc23)C[C@H]1CC (stereo partly drawn) [Example 224, 4-((2S,5R)-2,5-diethyl-4-(1-(6-(trifluoromethyl)pyridin-3-yl)propyl)piperazin-1-yl)-1-methyl-2-oxo-1,2-dihydropyrido[3,2-d]pyrimidine-6-carbonitrile] | 140 | 81 |  |  |  | 120 | 
CC[C@H]1CN(C(C)c2ccc(C(=O)OC)cc2)[C@H](CC)CN1c1nc(=O)n(C)c2ccc(C#N)nc12 (stereo partly drawn) [Example 266, methyl 4-(1-((2R,5S)-4-(6-cyano-1-methyl-2-oxo-1,2-dihydropyrido[3,2-d]pyrimidin-4-yl)-2,5-diethylpiperazin-1-yl)ethyl)benzoate] | 28 | 83 |  |  |  | 180 | 
CC[C@H]1CN(C(C)c2ccc(CO)cc2)[C@H](CC)CN1c1nc(=O)n(C)c2ccc(C#N)nc12 (stereo partly drawn) [Example 270, 4-((2S,5R)-2,5-Diethyl-4-(1-(4-(hydroxymethyl)phenyl)ethyl)piperazin-1-yl)-1-methyl-2-oxo-1,2-dihydropyrido[3,2-d]pyrimidine-6-carbonitrile] | 2320 | 8 |  |  |  | 1390 | 
CCC(c1ccc(OC)cc1)N1C[C@H](CC)N(c2nc(=O)n(C)c3ccc(C#N)nc23)C[C@H]1CC (stereo partly drawn) [Example 212, 4-((2S,5R)-2,5-diethyl-4-(1-(4-methoxyphenyl)propyl)piperazin-1-yl)-1-methyl-2-oxo-1,2-dihydropyrido[3,2-d]pyrimidine-6-carbonitrile] | 70 | 18 |  |  |  | 22 | 
CC[C@H]1CN(C(C)c2ccc(CN3CCC(OC)CC3)cc2)[C@H](CC)CN1c1nc(=O)n(C)c2ccc(C#N)nc12 (single isomer, unassigned) [Example 273] | 7330 | 1000 |  |  |  | 420 | 
CC[C@H]1CN(C(C)c2cnc(C(F)(F)F)nc2)[C@H](CC)CN1c1nc(=O)n(C)c2ccc(C#N)nc12 (stereo partly drawn) [Example 227, 4-((2S,5R)-2,5-diethyl-4-(1-(2-(trifluoromethyl)pyrimidin-5-yl)ethyl)piperazin-1-yl)-1-methyl-2-oxo-1,2-dihydropyrido[3,2-d]pyrimidine-6-carbonitrile] | 1790 | 2450 |  |  |  | 640 | 
CCC(c1ccc(C)cc1)N1C[C@H](CC)N(c2nc(=O)n(C)c3ccc(C#N)nc23)C[C@H]1CC (stereo partly drawn) [Example 237, 4-((2S,5R)-2,5-diethyl-4-(1-(p-tolyl)propyl)piperazin-1-yl)-1-methyl-2-oxo-1,2-dihydropyrido[3,2-d]pyrimidine-6-carbonitrile] | 3960 | 53 |  |  |  | 1430 | 
CCC(c1ccc(C#N)cc1)N1C[C@H](CC)N(c2nc(=O)n(C)c3ccc(C#N)nc23)C[C@H]1CC (stereo partly drawn) [Example 221, 4-((2S,5R)-4-(1-(4-cyanophenyl)propyl)-2,5-diethylpiperazin-1-yl)-1-methyl-2-oxo-1,2-dihydropyrido[3,2-d] pyrimidine-6-carbonitrile] | 250 | 2 |  |  |  | 480 | 
CCC(c1ccc(C2CC2)cc1)N1C[C@H](CC)N(c2nc(=O)n(C)c3ccc(C#N)nc23)C[C@H]1CC (stereo partly drawn) [Example 201, 4-((2S,5R)-4-(1-(4-cyclopropylphenyl)propyl)-2,5-diethylpiperazin-1-yl)-1-methyl-2-oxo-1,2-dihydropyrido[3,2-d]pyrimidine-6-carbonitrile] | 900 | 160 |  |  |  |  | 230
CC[C@H]1CN(C(C)c2ccc(C)nc2)[C@H](CC)CN1c1nc(=O)n(C)c2ccc(C#N)nc12 (stereo partly drawn) [Example 229, 4-((2S,5R)-2,5-diethyl-4-(1-(6-methylpyridin-3-yl)ethyl)piperazin-1-yl)-1-methyl-2-oxo-1,2-dihydropyrido[3,2-d]pyrimidine-6-carbonitrile] | 3560 | 680 |  |  |  | 1610 | 
CC[C@H]1CN(C(C)c2ccc3oc(=O)n(C)c3c2)[C@H](CC)CN1c1nc(=O)n(C)c2ccc(C#N)nc12 (stereo partly drawn) [Example 202, 4-((2S,5R)-2,5-diethyl-4-(1-(3-methyl-2-oxo-2,3-dihydrobenzo[d]oxazol-5-yl)ethyl)piperazin-1-yl)-1-methyl-2-oxo-1,2-dihydropyrido[3,2-d]pyrimidine-6-carbonitrile] | 420 | 360 |  |  |  | 160 | 
CCC(c1ccc(C#N)cc1)N1C[C@H](CC)N(c2nc(=O)n(C)c3ccc(C#N)nc23)C[C@H]1CC (stereo partly drawn) [Example 220, 4-((2S,5R)-4-(1-(4-cyanophenyl)propyl)-2,5-diethylpiperazin-1-yl)-1-methyl-2-oxo-1,2-dihydropyrido[3,2-d] pyrimidine-6-carbonitrile] | 46 | 110 |  |  |  | 81 | 

Continued, in another order:

IC50 (human DGKζ; [2]) [nM] | IC50 (human DGKα; [4]) [nM] | IC50 (human DGKζ; [5]) [nM] | EC50 [1, 6] [nM] | IC50 (human DGKα; [7]) [nM] | Structure (SMILES) | EC50 [1, 3] [nM] | EC50 ([1]; Homo sapiens, whole blood, normalized to 3 μM reference compound as 100% activation, read-out: IFN-γ Whole Blood Normalized EC50) [nM]
25100 | 3170 |  |  |  | CC[C@H]1CN(C(C)c2ccc(CN3CCN(C(C)=O)CC3)cc2)[C@H](CC)CN1c1nc(=O)n(C)c2ccc(C#N)nc12 (stereo partly drawn) [Example 284, 4-((2S,5R)-4-(1-(4-((4-acetylpiperazin-1-yl)methyl)phenyl)ethyl)-2,5-diethylpiperazin-1-yl)-1-methyl-2-oxo-1,2-dihydropyrido[3,2-d]pyrimidine-6-carbonitrile] | 13000 | 
 |  | 43 | 150 | 4 | CC[C@H]1CN(C(c2ccc(F)cc2)c2noc(C3CC3)n2)[C@H](CC)CN1c1nc(=O)n(C)c2ccc(C#N)nc12 (single isomer, unassigned) [Example 372] |  | 
 |  | 850 | 1480 | 350 | CCC(c1ccc(OCC2CC2)cc1)N1C[C@H](C)N(c2nc(=O)n(C)c3ccc(C#N)nc23)C[C@H]1CC (stereo partly drawn) [Example 309, 4-((2S,5R)-4-(1-(4-(cyclopropylmethoxy)phenyl)propyl)-5-ethyl-2-methylpiperazin-1-yl)-1-methyl-2-oxo-1,2-dihydropyrido[3,2-d]pyrimidine-6-carbonitrile] |  | 
 |  | 590 | 3090 | 61 | CC[C@H]1CN(C(C)c2nc(C3CC3)no2)[C@H](CC)CN1c1nc(=O)n(C)c2ccc(C#N)nc12 (stereo partly drawn) [Example 362, 4-((2S,5R)-4-(1-(3-cyclopropyl-1,2,4-oxadiazol-5-yl)ethyl)-2,5-diethylpiperazin-1-yl)-1-methyl-2-oxo-1,2-dihydropyrido[3,2-d]pyrimidine-6-carbonitrile] |  | 
150 | 530 |  |  |  | CC[C@H]1CN(C(C)c2ccc(CN3CCOC(C)(C)C3)cc2)[C@H](CC)CN1c1nc(=O)n(C)c2ccc(C#N)nc12 (stereo partly drawn) [Example 275, 4-((2S,5R)-4-(1-(4-((2,2-dimethylmorpholino)methyl)phenyl)ethyl)-2,5-diethylpiperazin-1-yl)-1-methyl-2-oxo-1,2-dihydropyrido[3,2-d]pyrimidine-6-carbonitrile] | 35 | 
174000 | 16000 |  |  |  | CC[C@H]1CN(C(C)c2ccc(CN3CCC(OC)CC3)cc2)[C@H](CC)CN1c1nc(=O)n(C)c2ccc(C#N)nc12 (single isomer, unassigned) [Example 274] | 5330 | 
